In brackets after ≈: the same amount, converted by molar mass.
What was measured:
Assay type in all cases: functional
Mus musculus [1] = assay: Parenteral antimalarial effect against Plasmodium berghei in mice (Mus musculus) at a dose of 640 subcutaneously mg/kg
Mus musculus [2] = assay: Parenteral antimalarial effect against Plasmodium berghei in mice (Mus musculus) at a dose of 20sc mg/kg
Mus musculus [3] = assay: Parenteral antimalarial effect against Plasmodium berghei in mice (Mus musculus) at a dose of 320 subcutaneous mg/kg
Enterococcus faecalis = assay: In vitro antibacterial effect against Streptococcus faecalis MGH-2
Staphylococcus aureus [4] = assay: In vitro antibacterial effect against Staphylococcus aureus S18713 by using gradient plate test
Mus musculus [5] = assay: Parenteral antimalarial effect against Plasmodium berghei in mice (Mus musculus) at a dose of 80 mg/kg subcutaneously; conditions: route subcutaneous
Mus musculus [6] = assay: Parenteral antimalarial effect against Plasmodium berghei in mice (Mus musculus) at a dose of 160 subcutaneously mg/kg
Shigella sonnei = assay: In vitro antibacterial effect against Shigella sonnei C-10 by using gradient plate test
Pseudomonas aeruginosa = assay: In vitro antibacterial effect against Pseudomonas aeruginosa 28 by using gradient plate test
[7] = test system: Mycobacterium tuberculosis; assay: In vitro antibacterial effect against Mycobacterium tuberculosis H37Rv by using gradient plate test
Staphylococcus aureus [8] = assay: In vitro antibacterial effect against Staphylococcus aureus UC-76 by using gradient plate test
Mus musculus [9] = assay: Parenteral antimalarial effect against Plasmodium berghei in mice (Mus musculus) at a dose of 40 mg/kg subcutaneously; conditions: route subcutaneous
Escherichia coli [10] = assay: In vitro antibacterial effect against Escherichia coli Vogel by using gradient plate test
Mus musculus [11] = assay: Parenteral antimalarial effect against Plasmodium berghei in mice (Mus musculus) at a dose of 160 mg/kg subcutaneously; Number of mice (Mus musculus) surviving at 60 days post infection and cured 8/10; conditions: route subcutaneous
Escherichia coli [12] = assay: In vitro antibacterial effect against E. c. Vogel by using gradient plate test
Mus musculus [13] = assay: Parenteral antimalarial effect against Plasmodium berghei in mice (Mus musculus) at a dose of 640 mg/kg subcutaneously; Number of mice (Mus musculus) surviving at 60 days post infection and cured 10/10; conditions: route subcutaneous
Mus musculus [14] = assay: Parenteral antimalarial effect against Plasmodium berghei in mice (Mus musculus) at a dose of 160 mg/kg subcutaneously; Number of mice (Mus musculus) surviving at 60 days post infection and cured 5/5; conditions: route subcutaneous
Mus musculus [15] = assay: Parenteral antimalarial effect against Plasmodium berghei in mice (Mus musculus) at a dose of 10sc mg/kg
Mus musculus [16] = assay: Parenteral antimalarial effect against Plasmodium berghei in mice (Mus musculus) at a dose of 320 subcutaneous mg/kg; Number of mice (Mus musculus) surviving at 60 days post infection and cured 5/5
Mus musculus [17] = assay: Parenteral antimalarial effect against Plasmodium berghei in mice (Mus musculus) at a dose of 160 mg/kg subcutaneously; Number of mice (Mus musculus) surviving at 60 days post infection and cured 10/10; conditions: route subcutaneous
Mus musculus [18] = assay: Parenteral antimalarial effect against Plasmodium berghei in mice (Mus musculus) at a dose of 40sc mg/kg; Number of mice (Mus musculus) surviving at 60 days post infection and cured 6/10
Mus musculus [19] = assay: Parenteral antimalarial effect against Plasmodium berghei in mice (Mus musculus) at a dose of 320 mg/kg subcutaneously; 5/5; conditions: route subcutaneous
Mus musculus [20] = assay: Parenteral antimalarial effect against Plasmodium berghei in mice (Mus musculus) at a dose of 160 mg/kg subcutaneously 10/10; conditions: route subcutaneous

Compound `CN(CCc1ccccc1)c1cnc2nc(N)nc(N)c2n1` has an MST (Mus musculus [1]) of 3.9 days, an MST (Mus musculus [2]) of 0.1 days and an MST (Mus musculus [3]) of 1.7 days. The MIC (Enterococcus faecalis) was < 0.25 µg/mL, the MIC (Staphylococcus aureus [4]) was < 0.25 µg/mL and the MST (Mus musculus [5]) was 0.1 days. For the same compound, the MST (Mus musculus [6]) was 0.7 days, the MIC (Shigella sonnei) was > 25 µg/mL and the MIC (Pseudomonas aeruginosa) was > 25 µg/mL. The MIC [7] was > 25 µg/mL, the MIC (Staphylococcus aureus [8]) was < 0.25 µg/mL and the MST (Mus musculus [9]) was 0.1 days. For the same compound, the MIC (Escherichia coli [10]) was > 25 µg/mL.

With `CN(Cc1ccc(F)cc1)c1cnc2nc(N)nc(N)c2n1` the MST (Mus musculus [2]) was 8.5 days, the MST (Mus musculus [11]) was 8 days and the MIC (Enterococcus faecalis) was < 0.25 µg/mL. For the same compound, the MIC (Escherichia coli [12]) was > 25 µg/mL, the MIC (Staphylococcus aureus [4]) was < 0.25 µg/mL and the MST (Mus musculus [13]) was 10 days. The MIC (Shigella sonnei) was > 25 µg/mL, the MIC (Pseudomonas aeruginosa) was > 25 µg/mL and the MIC [7] was 2.5 µg/mL (≈ 8.35 µM). For the same compound, the MIC (Staphylococcus aureus [8]) was < 0.25 µg/mL.

In the case of `CN(Cc1cccc(C(F)(F)F)c1)c1cnc2nc(N)nc(N)c2n1`, the MST (Mus musculus [2]) is reported as 12.2 days, the MIC (Enterococcus faecalis) is reported as < 0.25 µg/mL and the MIC (Staphylococcus aureus [4]) is reported as < 0.25 µg/mL. The MIC (Shigella sonnei) was > 25 µg/mL, the MIC (Pseudomonas aeruginosa) was > 25 µg/mL and the MST (Mus musculus [14]) was 5 days. The MIC [7] was 10 µg/mL (≈ 28.6 µM), the MIC (Staphylococcus aureus [8]) was < 0.25 µg/mL and the MST (Mus musculus [15]) was 8.8 days. For the same compound, the MST (Mus musculus [9]) was 15.4 days and the MIC (Escherichia coli [10]) was > 25 µg/mL.

Compound `COc1ccc(CN(C)c2cnc3nc(N)nc(N)c3n2)c2ccccc12` has an MST (Mus musculus [1]) of 5 days, an MST (Mus musculus [2]) of 6.5 days and an MST (Mus musculus [3]) of 5 days. For the same compound, the MIC (Enterococcus faecalis) was < 0.25 µg/mL, the MIC (Staphylococcus aureus [4]) was < 0.25 µg/mL and the MST (Mus musculus [5]) was 5 days. The MST (Mus musculus [6]) was 5 days, the MIC (Shigella sonnei) was > 25 µg/mL and the MIC (Pseudomonas aeruginosa) was > 25 µg/mL. For the same compound, the MIC [7] was 2.5 µg/mL (≈ 6.92 µM), the MIC (Staphylococcus aureus [8]) was < 0.25 µg/mL and the MST (Mus musculus [9]) was 5 days. For the same compound, the MIC (Escherichia coli [10]) was > 25 µg/mL.

Work on `CN(Cc1cccc2ccccc12)c1cnc2nc(N)nc(N)c2n1` yielded an MST (Mus musculus [16]) of 5 days, an MST (Mus musculus [17]) of 10 days and an MST (Mus musculus [2]) of 5 days. For the same compound, the MIC (Enterococcus faecalis) was < 0.25 µg/mL, the MIC (Staphylococcus aureus [4]) was < 0.25 µg/mL and the MST (Mus musculus [13]) was 10 days. The MIC (Shigella sonnei) was > 25 µg/mL, the MIC (Pseudomonas aeruginosa) was > 25 µg/mL and the MIC [7] was > 25 µg/mL. The MIC (Staphylococcus aureus [8]) was < 0.25 µg/mL, the MST (Mus musculus [15]) was 4 days and the MIC (Escherichia coli [10]) was > 25 µg/mL.

With `CN(Cc1ccccc1)c1cnc2nc(N)nc(N)c2n1` the MST (Mus musculus [1]) was 0.3 days, the MIC (Enterococcus faecalis) was < 0.25 µg/mL and the MIC (Escherichia coli [12]) was 10 µg/mL (≈ 35.5 µM). The MIC (Staphylococcus aureus [4]) was < 0.25 µg/mL, the MST (Mus musculus [6]) was 0.1 days and the MIC (Shigella sonnei) was > 25 µg/mL. The MIC (Pseudomonas aeruginosa) was > 25 µg/mL, the MIC [7] was 10 µg/mL (≈ 35.5 µM) and the MIC (Staphylococcus aureus [8]) was < 0.25 µg/mL. It also gave an MST (Mus musculus [9]) of 0.1 days.

With `Nc1nc(N)c2nc(N3CCCCC3)cnc2n1` the MST (Mus musculus [2]) was 0.3 days, the MST (Mus musculus [3]) was 0.9 days and the MST (Mus musculus [5]) was 0.3 days.

With `Nc1nc(N)c2nc(N3CCc4ccccc4C3)cnc2n1` the MST (Mus musculus [1]) was 0.5 days, the MST (Mus musculus [6]) was 0.3 days and the MST (Mus musculus [9]) was 0.1 days.

With `COc1cc(CN(C)c2cnc3nc(N)nc(N)c3n2)cc(OC)c1OC` the MST (Mus musculus [2]) was 5.5 days, the MST (Mus musculus [11]) was 8 days and the MIC (Enterococcus faecalis) was < 0.25 µg/mL. For the same compound, the MIC (Staphylococcus aureus [4]) was < 0.25 µg/mL, the MST (Mus musculus [18]) was 6 days and the MST (Mus musculus [13]) was 10 days. For the same compound, the MIC (Shigella sonnei) was > 25 µg/mL, the MIC (Pseudomonas aeruginosa) was > 25 µg/mL and the MIC [7] was > 25 µg/mL. The MIC (Staphylococcus aureus [8]) was < 0.25 µg/mL and the MIC (Escherichia coli [10]) was > 25 µg/mL.

With `CN(Cc1ccc(Cl)c(Cl)c1)c1cnc2nc(N)nc(N)c2n1` the MST (Mus musculus [2]) was 10.6 days, the MIC (Enterococcus faecalis) was < 0.25 µg/mL and the MST (Mus musculus [19]) was 5 days. The MIC (Escherichia coli [12]) was > 25 µg/mL, the MIC (Staphylococcus aureus [4]) was < 0.25 µg/mL and the MST (Mus musculus [13]) was 10 days. For the same compound, the MIC (Shigella sonnei) was > 25 µg/mL, the MIC (Pseudomonas aeruginosa) was > 25 µg/mL and the MST (Mus musculus [20]) was 10 days. The MIC [7] was 10 µg/mL (≈ 28.6 µM), the MIC (Staphylococcus aureus [8]) was < 0.25 µg/mL and the MST (Mus musculus [15]) was 2.5 days.

`CN(Cc1c2ccccc2cc2ccccc12)c1cnc2nc(N)nc(N)c2n1` showed an MST (Mus musculus [2]) of 0.1 days, an MST (Mus musculus [3]) of 1.3 days and an MST (Mus musculus [5]) of 0.1 days.
